Measured values as given in US20160376240A1, “6 Phenyl or 6 Pyridin 3 YL Indazole Derivatives and Methods of Use” (ABBVIE INC., priority 2014, published 2016).

Target: T1, TrkA (Homo sapiens, UniProt P04629)
T1 construct: purchased Invitrogen PV3144
Test: TrkA kinase inhibition, HTRF assay
Type: biochemical
Conditions: LCK peptide substrate 125 nM, TrkA 2-10 nM pre-incubated with ATP 200 μM
Summary of the method: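 TrkA (2-10 nM) preactivated 20 min with 200 μM ATP in HEPES pH 7.4 with Mg2+/Mn2+, then compound for 10 min, then 125 nM biotinylated LCK-peptide for 1 h at ambient temperature. HTRF 665/620 ratio read; IC50 fitted from initial-rate percent inhibition.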

T1 sequence (P04629 33-796): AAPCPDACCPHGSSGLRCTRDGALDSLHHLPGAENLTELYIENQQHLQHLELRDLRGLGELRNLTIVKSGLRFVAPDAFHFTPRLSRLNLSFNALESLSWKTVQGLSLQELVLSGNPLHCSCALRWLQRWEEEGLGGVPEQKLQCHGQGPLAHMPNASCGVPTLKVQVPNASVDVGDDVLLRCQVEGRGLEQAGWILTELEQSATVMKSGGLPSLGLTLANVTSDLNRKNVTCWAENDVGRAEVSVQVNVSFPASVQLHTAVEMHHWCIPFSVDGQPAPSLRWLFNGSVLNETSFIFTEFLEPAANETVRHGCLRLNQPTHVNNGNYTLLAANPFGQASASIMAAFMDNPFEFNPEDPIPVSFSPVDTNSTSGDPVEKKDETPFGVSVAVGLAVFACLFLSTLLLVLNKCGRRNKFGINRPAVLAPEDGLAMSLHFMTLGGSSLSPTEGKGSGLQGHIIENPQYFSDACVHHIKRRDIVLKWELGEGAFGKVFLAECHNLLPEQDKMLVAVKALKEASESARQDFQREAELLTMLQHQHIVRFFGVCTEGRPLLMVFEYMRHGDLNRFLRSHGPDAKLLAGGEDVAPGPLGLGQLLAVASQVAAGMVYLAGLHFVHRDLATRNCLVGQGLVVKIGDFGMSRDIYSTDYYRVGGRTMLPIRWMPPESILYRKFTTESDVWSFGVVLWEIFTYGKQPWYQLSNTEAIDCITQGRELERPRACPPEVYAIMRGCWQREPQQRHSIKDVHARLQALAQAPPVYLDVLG

`CNC(=O)c1ccc(-c2cc(O[C@H](C)C(F)(F)F)c3c(N)n[nH]c3c2)cc1N1CCN(C2CCC2)CC1` [Example 50, 4-(3-amino-4-{[(2R)-1,1,1-trifluoropropan-2-yl]oxy}-1H-indazol-6-yl)-2-(4-cyclobutylpiperazin-1-yl)-N-methylbenzamide] gave an IC50 of 530 nM.

With `CC(=O)c1ccc(-c2cc(OC3CCOCC3)c3c(N)n[nH]c3c2)cc1N1CCN(c2nccs2)CC1` [Example 21, 1-{4-[3-amino-4-(tetrahydro-2H-pyran-4-yloxy)-1H-indazol-6-yl]-2-[4-(1,3-thiazol-2-yl)piperazin-1-yl]phenyl}ethanone] the IC50 was 33.3 nM.

Compound `CNC(=O)c1ccc(-c2cc(O[C@H](C)C(F)(F)F)c3c(N)n[nH]c3c2)cc1OCCOC1CCCCC1` [Example 105, 4-(3-amino-4-{[(2R)-1,1,1-trifluoropropan-2-yl]oxy}-1H-indazol-6-yl)-2-[2-(cyclohexyloxy)ethoxy]-N-methylbenzamide] has an IC50 of 3.23 nM.

With `CNC(=O)c1ccc(-c2cc(OC3CCOCC3)c3c(N)n[nH]c3c2)cc1N1CCN(C(=O)C2CC2)CC1` [Example 32, 4-[3-amino-4-(tetrahydro-2H-pyran-4-yloxy)-1H-indazol-6-yl]-2-[4-(cyclopropylcarbonyl)piperazin-1-yl]-N-methylbenzamide] the IC50 was 376 nM.

`CC(Oc1cc(-c2ccc(C(=O)NC3CC3)c(N3CCN(C4CC4)CC3)c2)cc2[nH]nc(N)c12)C(F)(F)F` (stereo not drawn) [Example 27, 4-{3-amino-4-[(1,1,1-trifluoropropan-2-yl)oxy]-1H-indazol-6-yl}-N-cyclopropyl-2-(4-cyclopropylpiperazin-1-yl)benzamide] gave an IC50 of 251 nM.

With `Cc1n[nH]c2cc(-c3ccc(C(N)=O)c(N4CC5(CN(CC(F)(F)F)C5)C4)c3)cc(OC3CCOCC3)c12` [Example 166, 4-[3-methyl-4-(tetrahydro-2H-pyran-4-yloxy)-1H-indazol-6-yl]-2-[6-(2,2,2-trifluoroethyl)-2,6-diazaspiro[3.3]hept-2-yl]benzamide] the IC50 was 1040 nM.

`CNC(=O)c1ccc(-c2cc(O[C@@H](C)C(F)(F)F)c3c(N)n[nH]c3c2)cc1N1CCN(CCC(C)(C)C)CC1` [Example 40, 4-(3-amino-4-{[(2S)-1,1,1-trifluoropropan-2-yl]oxy}-1H-indazol-6-yl)-2-[4-(3,3-dimethylbutyl)piperazin-1-yl]-N-methylbenzamide] was tested, and the IC50 was 71.4 nM.

In the case of `CC(=O)Nc1ccc(-c2cc(OC3CCOCC3)c3c(C)n[nH]c3c2)cc1N1CCN(Cc2ccc(Cl)o2)CC1` [Example 150, N-(2-{4-[(5-chloro-2-furyl)methyl]piperazin-1-yl}-4-[3-methyl-4-(tetrahydro-2H-pyran-4-yloxy)-1H-indazol-6-yl]phenyl)acetamide], the IC50 is reported as 74.5 nM.

For `CNC(=O)c1ccc(-c2cc(OC3CCOCC3)c3c(C)n[nH]c3c2)cc1N1CCN(C(=O)OCC(C)(C)C)CC1` [Example 137, 2,2-dimethylpropyl 4-{2-(methylcarbamoyl)-5-[3-methyl-4-(tetrahydro-2H-pyran-4-yloxy)-1H-indazol-6-yl]phenyl}piperazine-1-carboxylate], the IC50 was 57.3 nM.

`NC(=O)c1ccc(-c2cc(OC3CCOCC3)c3c(N)n[nH]c3c2)cc1N1CCN(CCOCCO)CC1` [Example 11, 4-[3-amino-4-(tetrahydro-2H-pyran-4-yloxy)-1H-indazol-6-yl]-2-{4-[2-(2-hydroxyethoxy)ethyl]piperazin-1-yl}benzamide] showed an IC50 of 208 nM.

Work on `CC(=O)Nc1ccc(-c2cc(OC3CCOCC3)c3c(C)n[nH]c3c2)cc1N1CCN(C2CCCCC2)CC1` [Example 119, N-{2-(4-cyclohexylpiperazin-1-yl)-4-[3-methyl-4-(tetrahydro-2H-pyran-4-yloxy)-1H-indazol-6-yl]phenyl}acetamide] yielded an IC50 of 31.1 nM.

With `NC(=O)c1ccc(-c2cc(OC3CCCC3)c3c(N)n[nH]c3c2)cc1N1CCN(c2ccccn2)CC1` [Example 75, 4-[3-amino-4-(cyclopentyloxy)-1H-indazol-6-yl]-2-[4-(pyridin-2-yl)piperazin-1-yl]benzamide] the IC50 was 2.31 nM.

Work on `Cc1n[nH]c2cc(-c3ccc(C(N)=O)c(N4CCN(C(=O)OC(C)C)CC4)c3)cc(OC3CCOCC3)c12` [Example 142, isopropyl 4-{2-carbamoyl-5-[3-methyl-4-(tetrahydro-2H-pyran-4-yloxy)-1H-indazol-6-yl]phenyl}piperazine-1-carboxylate] yielded an IC50 of 23.2 nM.

With `Cc1n[nH]c2cc(-c3ccc(C#N)c(N4CCN(CC(F)(F)F)CC4)c3)cc(OC3CCOCC3)c12` [Example 156, 4-[3-methyl-4-(tetrahydro-2H-pyran-4-yloxy)-1H-indazol-6-yl]-2-[4-(2,2,2-trifluoroethyl)piperazin-1-yl]benzonitrile] the IC50 was 29.1 nM.

In the case of `NC(=O)c1ccc(-c2cc(O[C@H]3CCOC3)c3c(N)n[nH]c3c2)cc1N1CCN(c2cccnc2)CC1` [Example 67, 4-{3-amino-4-[(3S)-tetrahydrofuran-3-yloxy]-1H-indazol-6-yl}-2-[4-(pyridin-3-yl)piperazin-1-yl]benzamide], the IC50 is reported as 7.97 nM.

`CCCOC(=O)N1CCN(c2cc(-c3cc(OC4CCOCC4)c4c(C)n[nH]c4c3)ccc2C(=O)NC)CC1` [Example 135, propyl 4-{2-(methylcarbamoyl)-5-[3-methyl-4-(tetrahydro-2H-pyran-4-yloxy)-1H-indazol-6-yl]phenyl}piperazine-1-carboxylate] showed an IC50 of 8.29 nM.

Work on `CNC(=O)c1ccc(-c2cc(OC3CCOCC3)c3c(N)n[nH]c3c2)cc1N1CCN(C(=O)OC(C)(C)C)CC1` [Example 111, tert-butyl 4-{5-[3-amino-4-(tetrahydro-2H-pyran-4-yloxy)-1H-indazol-6-yl]-2-(methylcarbamoyl)phenyl}piperazine-1-carboxylate] yielded an IC50 of 26.8 nM.

For `CNC(=O)c1ccc(-c2cc(OC3CCOCC3)c3c(N)n[nH]c3c2)cc1N1CCN(CC(F)F)CC1` [Example 169, 4-[3-amino-4-(tetrahydro-2H-pyran-4-yloxy)-1H-indazol-6-yl]-2-[4-(2,2-difluoroethyl)piperazin-1-yl]-N-methylbenzamide], the IC50 was 38 nM.

`CC(=O)Nc1ccc(-c2cc(OC3CCOCC3)c3c(C)n[nH]c3c2)cc1N1CCN(C(=O)OC(C)C)CC1` [Example 146, isopropyl 4-{2-acetamido-5-[3-methyl-4-(tetrahydro-2H-pyran-4-yloxy)-1H-indazol-6-yl]phenyl}piperazine-1-carboxylate] was tested, and the IC50 was 4.43 nM.

`CC(O)c1ccc(-c2cc(OC3CCOCC3)c3c(N)n[nH]c3c2)cc1N1CCN(c2cccnc2)CC1` (stereo not drawn) [Example 22, 1-{4-[3-amino-4-(tetrahydro-2H-pyran-4-yloxy)-1H-indazol-6-yl]-2-[4-(pyridin-3-yl)piperazin-1-yl]phenyl}ethanol] was tested, and the IC50 was 254 nM.

Work on `CNC(=O)c1ccc(-c2cc(OC3CCOCC3)c3c(N)n[nH]c3c2)cc1N1CCN(CC(F)(F)C(F)F)CC1` [Example 167, 4-[3-amino-4-(tetrahydro-2H-pyran-4-yloxy)-1H-indazol-6-yl]-N-methyl-2-[4-(2,2,3,3-tetrafluoropropyl)piperazin-1-yl]benzamide] yielded an IC50 of 11.5 nM.

`CC(Oc1cc(-c2ccc(C(N)=O)c(N3C[C@H]4CN(Cc5ccccc5)C[C@H]4C3)c2)cc2[nH]nc(N)c12)C(F)(F)F` (stereo partly drawn) [Example 99, 4-{3-amino-4-[(1,1,1-trifluoropropan-2-yl)oxy]-1H-indazol-6-yl}-2-[(3aR*,6aS*)-5-benzylhexahydropyrrolo[3,4-c]pyrrol-2(1H)-yl]benzamide] gave an IC50 of 852 nM.

`Cc1n[nH]c2cc(-c3ccc(C(N)=O)c(N4CCN(CC(F)(F)F)CC4)c3)cc(OC3CCOCC3)c12` [Example 157, 4-[3-methyl-4-(tetrahydro-2H-pyran-4-yloxy)-1H-indazol-6-yl]-2-[4-(2,2,2-trifluoroethyl)piperazin-1-yl]benzamide] was tested, and the IC50 was 22.7 nM.

`CC(Oc1cc(-c2ccc(C(=O)NC3CC3)c(N3CCN(c4cccnc4)CC3)c2)cc2[nH]nc(N)c12)C(F)(F)F` (stereo not drawn) [Example 28, 4-{3-amino-4-[(1,1,1-trifluoropropan-2-yl)oxy]-1H-indazol-6-yl}-N-cyclopropyl-2-[4-(pyridin-3-yl)piperazin-1-yl]benzamide] was tested, and the IC50 was 41 nM.

For `CC(=O)c1ccc(-c2cc(OC3CCOCC3)c3c(N)n[nH]c3c2)cc1N1CCN(c2cccnc2)CC1` [Example 16, 1-{4-[3-amino-4-(tetrahydro-2H-pyran-4-yloxy)-1H-indazol-6-yl]-2-[4-(pyridin-3-yl)piperazin-1-yl]phenyl}ethanone], the IC50 was 29.6 nM.

`CNC(=O)c1ccc(-c2cc(OC3CCOCC3)c3c(N)n[nH]c3c2)cc1N1CCN(c2cccnc2)CC1` [Example 31, 4-[3-amino-4-(tetrahydro-2H-pyran-4-yloxy)-1H-indazol-6-yl]-N-methyl-2-[4-(pyridin-3-yl)piperazin-1-yl]benzamide] showed an IC50 of 42.1 nM.

With `CNC(=O)c1ccc(-c2cc(OC3CCCC3)c3c(C)n[nH]c3c2)cc1N1CCN(C(=O)OCc2ccccc2)CC1` [Example 129, benzyl 4-{5-[4-(cyclopentyloxy)-3-methyl-1H-indazol-6-yl]-2-(methylcarbamoyl)phenyl}piperazine-1-carboxylate] the IC50 was 50.8 nM.

`NC(=O)c1ccc(-c2cc(OC3CCOCC3)c3c(N)n[nH]c3c2)cc1N1CCN(CCCO)CC1` [Example 7, 4-[3-amino-4-(tetrahydro-2H-pyran-4-yloxy)-1H-indazol-6-yl]-2-[4-(3-hydroxypropyl)piperazin-1-yl]benzamide] was tested, and the IC50 was 706 nM.

For `CNC(=O)c1ccc(-c2cc(O[C@@H](C)C(F)(F)F)c3c(N)n[nH]c3c2)cc1N1CCN(c2cnccn2)CC1` [Example 46, 4-(3-amino-4-{[(2S)-1,1,1-trifluoropropan-2-yl]oxy}-1H-indazol-6-yl)-N-methyl-2-[4-(pyrazin-2-yl)piperazin-1-yl]benzamide], the IC50 was 32.5 nM.

With `CNC(=O)c1ccc(-c2cc(OC3CCOCC3)c3c(C)n[nH]c3c2)cc1N1CCN(S(=O)(=O)c2ccc(C)cc2)CC1` [Example 152, N-methyl-2-{4-[(4-methylphenyl)sulfonyl]piperazin-1-yl}-4-[3-methyl-4-(tetrahydro-2H-pyran-4-yloxy)-1H-indazol-6-yl]benzamide] the IC50 was 7.48 nM.
